One assay has as its system hydra cells. Briefly: Inhibition of DNA synthesis in hydra cell aggregates. Format: cell-based, Hydra vulgarie. The note with it: 10 μM, Time 0 to 96 hr.
In another assay the test system is Hydra cell aggregates. The assay is described as follows: Hydra cell aggregate development / morphogenesis blocking. It is filed as cell-based, Hydra vulgarie. The conditions noted are these: 10 μM, Time 0 to 96 hr. As for the experimental part:
All experiments utilized Hydra vulgarie (previously named Hydra attenuata). Animals were cultured as described previously (Sarras et al., 1991a, supra) and were not fed for 24 hr prior to use.
Hydra cell aggregates were prepared according to Gierer et al., (1972, supra) with modification described by Sans et al., (1993, supra). They were incubated either in microtiter plates (NUNS, Denmark) with one aggregate/well/10 μl incubation solution or in 96-well plates (Falcon) with three to five aggregates/well/50 μl incubation solution. Antibiotics were used throughout all steps of aggregate preparation to assure that the aggregates used in this study were free of any symbionic bacterial populations (Sarra et al., 1993, supra). […] By 24 hr of cell pellet formation, hydra cell aggregates develop septate junctions between epithelial cells (Wood et at., 1980. J. Ultrastruc. Res. 70:104-117). These junctions prevent the introduction of macromolecules from medium into mesoglea. […]
Criteria for morphogenesis was as follows. […] The percentage of aggregates-with head and tentacle structures at 96 hr of development was calculated and data for each group from different experiments were pooled and plotted. […] Using an ANOVA statistical test, a P value <0.05 was taken as the level of significant difference in all groups analyzed. […]

Regarding `NC(=O)NO` [HU, hydroxyurea], in the assay with hydra cells, the DNA synthesis entry is “completely blocked”. Further, the “morphogenesis of hydra cell aggregates” value in the assay with Hydra cell aggregates is “did not inhibit”.

The record behind these values is patent US6680293B2, “Use of isolated domains of type IV collagen to modify cell and tissue interactions” (Kansas University Medical Center, priority 1994, dated 2004).
